Experimental data reported in article PMC9898036, “VIP152 is a selective CDK9 inhibitor with pre-clinical in vitro and in vivo efficacy in chronic lymphocytic leukemia” (Leukemia, 2022).

Legend:
Assay in all cases: DiscoverX KINOMEscan kinase profiling (468 assays)
Type in all cases: binding
human kinome [1] = target: human kinome (Homo sapiens, UniProt O00444); conditions: read-out: Percent Control
Method in brief: (§1)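 VIP152 was run in DMSO, alongside a DMSO control. Readout was qPCR of DNA-tagged kinase still bound to bead-immobilized biotinylated kinase ligands after compound competition.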

human kinome [2] = target: human kinome (Homo sapiens, UniProt O75385); conditions: kinase ULK1 (Entrez ULK1); compound concentration 1000 nM; read-out: Percent Control
Method in brief: as §1

human kinome [3] = target: human kinome (Homo sapiens, UniProt O76039); conditions: CDKL5; 100 nM; read-out: Percent Control
Method in brief: as §1

human kinome [4] = target: human kinome (Homo sapiens, UniProt O94921); conditions: read-out: Percent Control
Method in brief: as §1

human kinome [5] = target: human kinome (Homo sapiens, UniProt P08581); conditions: MET; 100 nM; read-out: Percent Control
Method in brief: as §1

human kinome [6] = target: human kinome (Homo sapiens, UniProt P08581, Y1235D); conditions: MET(Y1235D); 100 nM; read-out: Percent Control
Method in brief: as §1

human kinome [7] = target: human kinome (Homo sapiens, UniProt P10721, D816V); conditions: KIT(D816V); 100 nM; read-out: Percent Control
Method in brief: as §1

human kinome [8] = target: human kinome (Homo sapiens, UniProt P14616); conditions: INSRR; 100 nM; read-out: Percent Control
Method in brief: as §1

human kinome [9] = target: human kinome (Homo sapiens, UniProt P17612); conditions: read-out: Percent Control
Method in brief: as §1

human kinome [10] = target: human kinome (Homo sapiens, UniProt P29317); conditions: EPHA2; 100 nM; read-out: Percent Control
Method in brief: as §1

human kinome [11] = target: human kinome (Homo sapiens, UniProt P31749); conditions: AKT1; 100 nM; read-out: Percent Control
Method in brief: as §1

human kinome [12] = target: human kinome (Homo sapiens, UniProt P42336, C420R); conditions: read-out: Percent Control
Method in brief: as §1

human kinome [13] = target: human kinome (Homo sapiens, UniProt P51955); conditions: read-out: Percent Control
Method in brief: as §1

human kinome [14] = target: human kinome (Homo sapiens, UniProt P51956); conditions: read-out: Percent Control
Method in brief: as §1

human kinome [15] = target: human kinome (Homo sapiens, UniProt P54753); conditions: EPHB3; 100 nM; read-out: Percent Control
Method in brief: as §1

human kinome [16] = target: human kinome (Homo sapiens, UniProt Q00535); conditions: CDK5; 100 nM; read-out: Percent Control
Method in brief: as §1

human kinome [17] = target: human kinome (Homo sapiens, UniProt Q13546); conditions: kinase RIPK1 (Entrez RIPK1); compound concentration 1000 nM; read-out: Percent Control
Method in brief: as §1

human kinome [18] = target: human kinome (Homo sapiens, UniProt Q14289); conditions: read-out: Percent Control
Method in brief: as §1

human kinome [19] = target: human kinome (Homo sapiens, UniProt Q14680); conditions: MELK; 100 nM; read-out: Percent Control
Method in brief: as §1

human kinome [20] = target: human kinome (Homo sapiens, UniProt Q15746); conditions: read-out: Percent Control
Method in brief: as §1

human kinome [21] = target: human kinome (Homo sapiens, UniProt Q16566); conditions: CAMK4; 100 nM; read-out: Percent Control
Method in brief: as §1

human kinome [22] = target: human kinome (Homo sapiens, UniProt Q7L7X3); conditions: kinase TAOK1 (Entrez TAOK1); compound concentration 1000 nM; read-out: Percent Control
Method in brief: as §1

human kinome [23] = target: human kinome (Homo sapiens, UniProt Q8IU85); conditions: CAMK1D; 100 nM; read-out: Percent Control
Method in brief: as §1

human kinome [24] = target: human kinome (Homo sapiens, UniProt Q8IVH8); conditions: MAP4K3; 100 nM; read-out: Percent Control
Method in brief: as §1

human kinome [25] = target: human kinome (Homo sapiens, UniProt Q8IYT8); conditions: kinase ULK2 (Entrez ULK2); compound concentration 1000 nM; read-out: Percent Control
Method in brief: as §1

human kinome [26] = target: human kinome (Homo sapiens, UniProt Q9BYT3); conditions: kinase STK33 (Entrez STK33); compound concentration 1000 nM; read-out: Percent Control
Method in brief: as §1

human kinome [27] = target: human kinome (Homo sapiens, UniProt Q9HAZ1); conditions: CLK4; 100 nM; read-out: Percent Control
Method in brief: as §1

human kinome [28] = target: human kinome (Homo sapiens, UniProt Q9HBY8); conditions: kinase SGK2 (Entrez SGK2); compound concentration 1000 nM; read-out: Percent Control
Method in brief: as §1

human kinome [29] = target: human kinome (Homo sapiens, UniProt Q9HC98); conditions: read-out: Percent Control
Method in brief: as §1

human kinome [30] = target: human kinome (Homo sapiens, UniProt Q9Y6R4); conditions: MAP3K4; 100 nM; read-out: Percent Control
Method in brief: as §1

Sequence of human kinome (Homo sapiens, UniProt Q9HC98) (Q9HC98 whole entry): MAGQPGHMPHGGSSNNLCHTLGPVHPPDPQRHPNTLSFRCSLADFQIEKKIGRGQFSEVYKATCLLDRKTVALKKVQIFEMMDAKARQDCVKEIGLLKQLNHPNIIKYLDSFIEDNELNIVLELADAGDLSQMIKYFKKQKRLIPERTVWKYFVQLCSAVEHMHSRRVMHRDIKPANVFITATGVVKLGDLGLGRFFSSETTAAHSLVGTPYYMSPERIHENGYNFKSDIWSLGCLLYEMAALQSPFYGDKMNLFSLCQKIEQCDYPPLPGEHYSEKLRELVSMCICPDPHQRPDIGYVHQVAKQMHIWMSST
Sequence of human kinome (Homo sapiens, UniProt P42336, C420R) (P42336 whole entry C420R): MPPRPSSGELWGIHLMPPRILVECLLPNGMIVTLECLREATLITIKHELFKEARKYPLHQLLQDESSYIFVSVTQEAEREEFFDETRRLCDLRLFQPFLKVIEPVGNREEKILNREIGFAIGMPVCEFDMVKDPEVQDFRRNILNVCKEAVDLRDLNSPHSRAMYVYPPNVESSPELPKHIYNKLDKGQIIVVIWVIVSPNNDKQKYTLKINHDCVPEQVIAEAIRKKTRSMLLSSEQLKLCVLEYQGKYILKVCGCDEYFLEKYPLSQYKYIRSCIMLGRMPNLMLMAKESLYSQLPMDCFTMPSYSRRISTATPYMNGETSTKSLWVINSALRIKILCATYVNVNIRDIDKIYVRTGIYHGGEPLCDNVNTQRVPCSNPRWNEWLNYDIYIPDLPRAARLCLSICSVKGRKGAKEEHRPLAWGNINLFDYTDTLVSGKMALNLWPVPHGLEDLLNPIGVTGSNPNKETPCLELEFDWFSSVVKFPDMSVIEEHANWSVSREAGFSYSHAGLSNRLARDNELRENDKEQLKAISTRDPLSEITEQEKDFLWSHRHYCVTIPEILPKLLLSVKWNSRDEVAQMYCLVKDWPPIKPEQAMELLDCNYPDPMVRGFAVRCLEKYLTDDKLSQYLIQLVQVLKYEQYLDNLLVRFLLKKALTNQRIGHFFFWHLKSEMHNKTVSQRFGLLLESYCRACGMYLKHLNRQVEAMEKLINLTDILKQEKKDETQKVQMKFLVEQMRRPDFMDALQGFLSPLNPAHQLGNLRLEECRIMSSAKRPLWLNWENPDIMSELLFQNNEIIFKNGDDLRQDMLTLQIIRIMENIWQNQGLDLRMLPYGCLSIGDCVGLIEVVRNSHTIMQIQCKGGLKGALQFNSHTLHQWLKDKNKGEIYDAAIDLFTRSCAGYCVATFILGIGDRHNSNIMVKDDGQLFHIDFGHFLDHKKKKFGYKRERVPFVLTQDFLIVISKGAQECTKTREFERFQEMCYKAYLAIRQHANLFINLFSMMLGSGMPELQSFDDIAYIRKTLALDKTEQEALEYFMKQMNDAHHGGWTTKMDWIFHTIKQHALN
Sequence of human kinome (Homo sapiens, UniProt Q15746) (Q15746 whole entry): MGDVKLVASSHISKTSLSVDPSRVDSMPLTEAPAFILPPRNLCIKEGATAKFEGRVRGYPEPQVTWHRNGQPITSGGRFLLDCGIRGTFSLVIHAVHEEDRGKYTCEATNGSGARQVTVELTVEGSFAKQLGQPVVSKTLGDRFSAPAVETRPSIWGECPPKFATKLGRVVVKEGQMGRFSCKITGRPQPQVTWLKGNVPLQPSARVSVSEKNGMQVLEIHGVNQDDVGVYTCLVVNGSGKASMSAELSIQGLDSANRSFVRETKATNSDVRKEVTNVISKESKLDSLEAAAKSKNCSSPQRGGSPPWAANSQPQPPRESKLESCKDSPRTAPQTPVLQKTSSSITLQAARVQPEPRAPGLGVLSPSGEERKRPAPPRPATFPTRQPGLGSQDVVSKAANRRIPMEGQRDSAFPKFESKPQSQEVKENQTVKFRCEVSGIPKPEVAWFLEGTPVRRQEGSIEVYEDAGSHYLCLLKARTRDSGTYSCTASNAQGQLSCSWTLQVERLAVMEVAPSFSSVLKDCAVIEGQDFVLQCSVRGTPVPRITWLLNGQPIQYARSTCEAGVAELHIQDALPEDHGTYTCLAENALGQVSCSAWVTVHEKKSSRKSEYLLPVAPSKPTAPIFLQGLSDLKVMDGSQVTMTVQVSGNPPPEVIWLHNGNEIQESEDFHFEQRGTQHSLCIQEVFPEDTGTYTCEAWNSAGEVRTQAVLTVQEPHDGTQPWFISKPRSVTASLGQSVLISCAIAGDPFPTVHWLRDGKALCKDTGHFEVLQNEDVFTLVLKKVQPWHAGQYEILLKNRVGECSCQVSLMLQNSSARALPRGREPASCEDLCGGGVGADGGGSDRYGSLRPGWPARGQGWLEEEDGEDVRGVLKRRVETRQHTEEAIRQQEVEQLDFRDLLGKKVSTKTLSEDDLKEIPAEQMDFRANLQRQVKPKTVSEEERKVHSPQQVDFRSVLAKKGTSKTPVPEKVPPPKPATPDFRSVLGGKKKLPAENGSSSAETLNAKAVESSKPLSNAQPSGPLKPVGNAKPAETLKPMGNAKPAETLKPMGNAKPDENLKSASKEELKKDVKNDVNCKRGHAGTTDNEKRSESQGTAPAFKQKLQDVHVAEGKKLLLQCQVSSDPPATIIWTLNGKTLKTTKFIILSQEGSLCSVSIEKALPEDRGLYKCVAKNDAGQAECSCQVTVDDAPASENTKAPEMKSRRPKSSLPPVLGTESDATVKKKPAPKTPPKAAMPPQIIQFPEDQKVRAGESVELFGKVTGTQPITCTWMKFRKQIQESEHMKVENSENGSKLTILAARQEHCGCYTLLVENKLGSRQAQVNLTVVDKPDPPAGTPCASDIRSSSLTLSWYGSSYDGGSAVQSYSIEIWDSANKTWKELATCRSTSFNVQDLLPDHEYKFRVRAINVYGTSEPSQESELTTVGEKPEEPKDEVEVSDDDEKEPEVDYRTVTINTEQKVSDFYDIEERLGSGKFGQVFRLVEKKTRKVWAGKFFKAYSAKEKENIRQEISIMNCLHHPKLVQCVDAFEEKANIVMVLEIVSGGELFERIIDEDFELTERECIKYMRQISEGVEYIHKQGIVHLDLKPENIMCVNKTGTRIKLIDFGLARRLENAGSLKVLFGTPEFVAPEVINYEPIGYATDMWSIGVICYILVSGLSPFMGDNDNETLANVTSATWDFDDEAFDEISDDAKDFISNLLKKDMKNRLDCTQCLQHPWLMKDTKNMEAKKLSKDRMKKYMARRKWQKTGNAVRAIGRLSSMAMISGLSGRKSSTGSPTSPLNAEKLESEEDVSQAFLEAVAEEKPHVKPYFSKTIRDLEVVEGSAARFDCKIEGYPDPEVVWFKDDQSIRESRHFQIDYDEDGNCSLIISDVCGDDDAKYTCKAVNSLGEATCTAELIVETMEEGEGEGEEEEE
Sequence of human kinome (Homo sapiens, UniProt Q14289) (Q14289 whole entry): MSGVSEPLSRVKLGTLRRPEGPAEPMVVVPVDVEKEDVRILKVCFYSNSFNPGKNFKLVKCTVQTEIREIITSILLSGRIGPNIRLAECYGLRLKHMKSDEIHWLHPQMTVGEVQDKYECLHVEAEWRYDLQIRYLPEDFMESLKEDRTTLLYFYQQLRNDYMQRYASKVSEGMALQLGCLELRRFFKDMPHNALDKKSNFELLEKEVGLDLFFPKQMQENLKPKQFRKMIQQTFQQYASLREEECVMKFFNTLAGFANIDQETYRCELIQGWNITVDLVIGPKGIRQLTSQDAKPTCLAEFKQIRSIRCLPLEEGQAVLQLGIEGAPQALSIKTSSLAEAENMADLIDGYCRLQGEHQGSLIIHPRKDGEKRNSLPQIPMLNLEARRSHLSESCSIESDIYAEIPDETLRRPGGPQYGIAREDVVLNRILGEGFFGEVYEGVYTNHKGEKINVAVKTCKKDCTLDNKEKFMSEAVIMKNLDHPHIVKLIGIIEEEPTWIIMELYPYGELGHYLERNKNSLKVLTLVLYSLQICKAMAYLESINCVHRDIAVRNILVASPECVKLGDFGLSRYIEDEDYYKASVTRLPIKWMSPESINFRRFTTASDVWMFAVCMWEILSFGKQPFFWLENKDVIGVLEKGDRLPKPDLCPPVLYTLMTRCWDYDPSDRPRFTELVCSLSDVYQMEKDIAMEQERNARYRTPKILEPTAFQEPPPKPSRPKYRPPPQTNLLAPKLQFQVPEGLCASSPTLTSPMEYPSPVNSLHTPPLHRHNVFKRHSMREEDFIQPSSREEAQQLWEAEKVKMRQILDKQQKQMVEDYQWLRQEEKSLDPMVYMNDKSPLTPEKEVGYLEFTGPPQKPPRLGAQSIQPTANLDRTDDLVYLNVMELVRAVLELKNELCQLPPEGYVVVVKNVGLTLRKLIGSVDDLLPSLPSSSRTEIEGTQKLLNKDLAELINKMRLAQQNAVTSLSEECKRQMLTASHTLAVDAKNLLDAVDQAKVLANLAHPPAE
Sequence of human kinome (Homo sapiens, UniProt O94921) (O94921 whole entry): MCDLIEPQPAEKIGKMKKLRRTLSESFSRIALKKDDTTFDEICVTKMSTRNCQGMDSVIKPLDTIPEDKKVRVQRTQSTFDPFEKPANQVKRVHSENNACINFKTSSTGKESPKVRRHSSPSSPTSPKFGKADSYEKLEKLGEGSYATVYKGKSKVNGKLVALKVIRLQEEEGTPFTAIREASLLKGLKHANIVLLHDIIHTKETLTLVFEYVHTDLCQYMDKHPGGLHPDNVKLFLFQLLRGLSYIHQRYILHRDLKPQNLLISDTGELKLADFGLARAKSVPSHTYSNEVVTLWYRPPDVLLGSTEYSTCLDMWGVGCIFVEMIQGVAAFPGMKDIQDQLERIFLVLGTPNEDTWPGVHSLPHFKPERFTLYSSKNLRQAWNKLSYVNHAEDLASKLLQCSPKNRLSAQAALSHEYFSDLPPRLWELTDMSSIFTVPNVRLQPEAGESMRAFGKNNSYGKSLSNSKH
Sequence of human kinome (Homo sapiens, UniProt Q00535) (Q00535 whole entry): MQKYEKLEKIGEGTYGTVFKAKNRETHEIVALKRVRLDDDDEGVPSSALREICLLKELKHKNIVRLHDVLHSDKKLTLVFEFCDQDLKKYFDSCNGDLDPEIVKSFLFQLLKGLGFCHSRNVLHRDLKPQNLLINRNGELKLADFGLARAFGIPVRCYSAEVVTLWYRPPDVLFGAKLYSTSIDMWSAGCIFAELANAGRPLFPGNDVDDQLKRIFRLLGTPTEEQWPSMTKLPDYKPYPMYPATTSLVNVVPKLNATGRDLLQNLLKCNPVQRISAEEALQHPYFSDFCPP

Compound: COc1cc(F)ccc1-c1cc(Nc2cc(CS(C)(=N)=O)ccn2)ncc1F (stereo not drawn) [VIP152]
- remaining binding at 0.1 µM (human kinome [1]; PLK4, 100 nM): 100%
- remaining binding at 1 µM (human kinome [1]; kinase PLK4 (Entrez PLK4), compound concentration 1000 nM): 79%
- remaining binding at 1 µM (human kinome [2]): 90%
- remaining binding at 0.1 µM (human kinome [3]): 100%
- remaining binding at 0.1 µM (human kinome [4]; PFTK1 (Entrez CDK14), 100 nM): 100%
- remaining binding at 1 µM (human kinome [4]; kinase PFTK1 (Entrez CDK14), compound concentration 1000 nM): 84%
- remaining binding at 0.1 µM (human kinome [5]): 57%
- remaining binding at 0.1 µM (human kinome [6]): 82%
- remaining binding at 0.1 µM (human kinome [7]): 100%
- remaining binding at 0.1 µM (human kinome [8]): 100%
- remaining binding at 0.1 µM (human kinome [9]; PKAC-alpha (Entrez PRKACA), 100 nM): 97%
- remaining binding at 1 µM (human kinome [9]; kinase PKAC-alpha (Entrez PRKACA), compound concentration 1000 nM): 100%
- remaining binding at 0.1 µM (human kinome [10]): 92%
- remaining binding at 0.1 µM (human kinome [11]): 100%
- remaining binding at 0.1 µM (human kinome [12]; PIK3CA(C420R), 100 nM): 98%
- remaining binding at 1 µM (human kinome [12]; kinase PIK3CA(C420R) (Entrez PIK3CA), compound concentration 1000 nM): 92%
- remaining binding at 0.1 µM (human kinome [13]; NEK2, 100 nM): 100%
- remaining binding at 1 µM (human kinome [13]; kinase NEK2 (Entrez NEK2), compound concentration 1000 nM): 84%
- remaining binding at 0.1 µM (human kinome [14]; NEK3, 100 nM): 98%
- remaining binding at 1 µM (human kinome [14]; kinase NEK3 (Entrez NEK3), compound concentration 1000 nM): 62%
- remaining binding at 0.1 µM (human kinome [15]): 100%
- remaining binding at 0.1 µM (human kinome [16]): 100%
- remaining binding at 1 µM (human kinome [17]): 79%
- remaining binding at 0.1 µM (human kinome [18]; PYK2 (Entrez PTK2B), 100 nM): 100%
- remaining binding at 1 µM (human kinome [18]; kinase PYK2 (Entrez PTK2B), compound concentration 1000 nM): 90%
- remaining binding at 0.1 µM (human kinome [19]): 91%
- remaining binding at 0.1 µM (human kinome [20]; MYLK, 100 nM): 95%
- remaining binding at 1 µM (human kinome [20]; kinase MYLK (Entrez MYLK), compound concentration 1000 nM): 77%
- remaining binding at 0.1 µM (human kinome [21]): 100%
- remaining binding at 1 µM (human kinome [22]): 62%
- remaining binding at 0.1 µM (human kinome [23]): 100%
- remaining binding at 0.1 µM (human kinome [24]): 100%
- remaining binding at 1 µM (human kinome [25]): 97%
- remaining binding at 1 µM (human kinome [26]): 84%
- remaining binding at 0.1 µM (human kinome [27]): 100%
- remaining binding at 1 µM (human kinome [28]): 73%
- remaining binding at 0.1 µM (human kinome [29]; NEK6, 100 nM): 100%
- remaining binding at 1 µM (human kinome [29]; kinase NEK6 (Entrez NEK6), compound concentration 1000 nM): 93%
- remaining binding at 0.1 µM (human kinome [30]): 100%
